{"source": "patent US20240374739A1", "about": "“BILE ACID CONJUGATE” (Curtin University, priority 2021, published 2024)", "key": {"OC-1 cells [1]": {"tested_on": "OC-1 cells", "assay": "Cobalt chloride hypoxia assay", "type": "cell-based", "conditions": "cells pre-treated with CoCl2 at 100 μM for 24 hours, microscopic examination", "experimental": "This assay is used to determine whether an intervention can reverse hypoxic-induced cell death brought about by cobalt chloride. For this assay, cells are pre-treated with CoCl2 at 100 μM for 24 hours, followed by microscopic examination of cell morphology and viability."}, "Caspase 3/9 protein": {"tested_on": "Caspase 3/9 protein", "assay": "Caspase assay", "type": "cell-based", "conditions": "OC-1 cells under stressful, toxic conditions (FIG. 31)", "experimental": "The caspase assay was carried as per manufacturer's instructions (abcam, NSW, Australia), as described below.\n• Collagen coated cover slip • Fixing agent: 4% paraformaldehyde • Permeabilization agent 0.5% of Tween 20 or trition-X 100 diluted in PBS • Blocking: 1% BSA in PBST may also be used. • PBST: 0.1% Tween 20 in PBS • Primary abs (1:500 in PBS) • Secondary abs (1:1000 in PBS) • Hoechst (Nuclear stain)\nFirst day: Fixation, permeabilize, blocking and add a primary antibody to the cells, as described below:\n• Start by aspirating culture medium from each well followed by fixation of the cells with 4% Using 4% paraformaldehyde in PBS pH 7.4 for 10 min at room temperature. (Add one ml in each well). • Shake a plate for a few seconds.\n0.5% of Tween 20 or trition-X 100 diluted in PBS. […]\n• Make coverslips ready to be mounted onto microscope slides. • Take a clean slide and dispense one drop of antifade mounting medium by slowly from the pipette into the slide. • Carefully remove a coverslip from the well and allow excess wash to drip off and place the cells face down onto the slide. • Clear fingernail polish can be used to seal the coverslip and prevent it from drying out. • Visualized slide under microscope. […]"}, "OC-1 cells [2]": {"tested_on": "OC-1 cells", "assay": "Seahorse bioenergetics experiment (oxygen consumption rate) after cisplatin", "type": "cell-based", "experimental": "Mitochondrial function was analysed by measuring oxygen consumption rate (OCR) using real-time Seahorse Flux Analyser XF 96 (Seahorse Bioscience, USA) with our well-established method (Kovacevic, Bozica, et al. “Novel hydrogel comprising non-ionic copolymer with various concentrations of pharmacologically active bile acids for cellular injectable gel.” Colloids and Surfaces B: Biointerfaces (2022): 113014). Briefly, the first injection was with media without glucose, with subsequent ATP synthase inhibitor oligomycin and FCCP (carbonyl cyanide-p-trifluoromethoxy phenylhydrazone) and the final injection was complex […] inhibitors Rotenone+antimycin A 77. The result was automatically generated and analysed by the wave software. The OC-1 cells were pre-treated with cisplatin at three different concentrations (20, 30 and 40 μM) for 24 or 48 hours to induce cytotoxicity prior to the seahorse bioenergetics assays."}, "[3]": {"tested_on": "Neurodegenerated cells (Alzheimer's disease model)", "assay": "Immunocytochemical localization of AD specific and neuronal markers", "type": "cell-based, human", "conditions": "fluorescence micrographs", "experimental": "(§1) Perinatal tissue derived human stem cell model for Alzheimer's disease (AD) was prepared using proprietary protocols to test the effect of new drug entities. Drug treatment was for 24 h in all the assays.\nFor further confirmation and protein localization of the AD specific neurodegenerative markers and neuronal markers, we performed immunolocalization for BACE1 and synapsin respectively.\nFluorescence micrographs of BACE1 positive neuronal cells were obtained and the effects of probucol, SPQ and HA-1 on neurodegeneration model were compared. […] In the AD model, as expected BACE1 accumulation is clearly pronounced.\nIn the case of synapsin 1, a disruption in expression of synapsin protein in ND cells was observed."}, "[4]": {"tested_on": "Neurodegenerated cells (perinatal tissue derived human stem cell model for Alzheimer's disease)", "assay": "Lactate dehydrogenase (LDH) assay, in vitro model of Alzheimer's disease", "type": "cell-based", "conditions": "probucol 20 μM, SPQ 10 μM, HA-1 10 μM, rivastigmine 2 μM, 24 hours; compared to ND cells", "experimental": "as §1\nLDH leakage is a well characterised marker of cellular membrane damage and increase in indicative of lactate deficit, is a hallmark of AD."}, "[5]": {"tested_on": "Neurodegenerated cells (Alzheimer's disease model)", "assay": "ROS (reactive oxygen species) assay, Alzheimer's disease model", "type": "cell-based, human", "conditions": "AD model", "experimental": "as §1\n(§2) Increase in oxidative stress is associated with accumulation of amyloid beta seen in the AD model. Increased oxidative stress and nitric oxide levels lead to apoptosis and evoke cytotoxic effects on neurons."}, "[6]": {"tested_on": "Neurodegenerated cells (Alzheimer's disease model)", "assay": "Greiss (nitric oxide) assay, Alzheimer's disease model", "type": "cell-based, human", "conditions": "AD model", "experimental": "as §1, §2"}, "[7]": {"tested_on": "Neurodegenerated cells (Alzheimer's disease model)", "assay": "Mitochondrial membrane potential by TMRE assay, Alzheimer's disease model", "type": "cell-based, human", "conditions": "AD model; probucol 20 μM, SPQ 10 μM, HA-1 10 μM, rivastigmine 2 μM, 24 hours", "experimental": "as §1\nAβ plaques are sources of toxicity that lead to severe structural and functional abnormalities in mitochondria in Alzheimer's disease. For assessing the changes in the electrophysiology and functional changes in the mitochondrial membrane potential, we used TMRE (tetramethylrhodamine ethyl ester) for quantifying changes in mitochondrial membrane potential in live cells by fluorimetry."}, "[8]": {"tested_on": "Neurodegenerated cells (Alzheimer's disease model)", "assay": "Glutathione peroxidase / GSH activity, Alzheimer's disease model", "type": "cell-based, human", "conditions": "AD model; vs neurodegeneration", "experimental": "as §1\nAlzheimer's disease-related increase in oxidative stress is associated with decrease in the levels of brain antioxidant glutathione (GSH).\n(Statistical analysis: results are expressed in mean±SD. One-way ANOVA followed by Dunnett's post hoc test was performed to compare all columns vs neurodegeneration (p<0.05; *p<0.05, **p<0.001, ***p<0.0001, ns=non-significant, n=3).)"}, "[9]": {"tested_on": "Neurodegenerated cells (Alzheimer's disease model)", "assay": "Gene expression analysis by qRT-PCR for neuronal, cholinergic and AD associated markers", "type": "cell-based, human", "conditions": "24 h drug treatment", "experimental": "as §1\nFor determining the expression of genes involved in AD specific neurodegeneration and neuronal markers, we analysed BACE and chAT (AD and cholinergic markers) and synapsin 1 and neuropilin (neuronal markers)."}, "[10]": {"tested_on": "Neurodegenerated cells (Parkinson's disease model)", "assay": "Glutathione peroxidase / GSH activity, Parkinson's disease model", "type": "cell-based, human", "conditions": "PD model; vs neurodegeneration", "experimental": "(§3) Perinatal tissue derived human stem cell model for Parkinson's disease (PD) was prepared using proprietary protocols to test the effect of new drug entities. Drug treatment was for 24 hours in all the assays.\nParkinson's disease-related increase in oxidative stress is associated with mitochondrial dysfunction and subsequent decrease in the levels of brain antioxidant glutathione (GSH).\n(Statistical analysis: Results are expressed in mean±SD. One-way ANOVA followed by Dunnett's post hoc test was performed to compare all columns vs neurodegeneration (p<0.05; *p<0.05, **p<0.001, ***p<0.0001, ns=non-significant, n=3).)"}, "[11]": {"tested_on": "Neurodegenerated cells (Parkinson's disease model)", "assay": "ROS assay, Parkinson's disease model", "type": "cell-based, human", "conditions": "PD model", "experimental": "as §3\n(§4) Increase in oxidative stress associated with accumulation of α-synuclein plays a central role in disease progression. Nitric oxide enhances the aggregation of α-synuclein and accelerates disease progression. Increased oxidative stress and nitric oxide levels lead to apoptosis and evoke cytotoxic effects on neurons."}, "[12]": {"tested_on": "Neurodegenerated cells (Parkinson's disease model)", "assay": "Greiss (nitric oxide) assay, Parkinson's disease model", "type": "cell-based, human", "conditions": "PD model", "experimental": "as §3, §4"}, "[13]": {"tested_on": "Neurodegenerated cells (Parkinson's disease model)", "assay": "Gene expression analysis by qRT-PCR for neuronal, dopaminergic and PD associated markers", "type": "cell-based, human", "conditions": "24 hours drug treatment", "experimental": "as §3\nGene expression levels of mature neuronal marker (Synapsin I), dopaminergic markers (Nuclear receptor related 1 (Nurr1), Dopamine transporter (DAT) and Tyrosine hydroxylase (TH)), and PD associated marker (α-synuclein) were analysed to determine the effect of probucol, SPQ, HA-1 and L-Dopa.\n(A) Synapsin I, (B) Nurr1, (C) DAT, (D) TH and (E) α-synuclein. (p<0.05; *p<0.05, **p<0.001, ***p<0.0001, n=3)."}, "[14]": {"tested_on": "Neurodegenerated cells (Parkinson's disease model)", "assay": "Adenosine triphosphate (ATP) assay, Parkinson's disease model", "type": "cell-based, human", "conditions": "PD model; probucol 20 μM, SPQ 10 μM, HA-1 10 μM, L-Dopa 50 μM, 24 hours", "experimental": "as §3\nImpaired energy metabolism and reduced ATP levels are common features of PD. Using the stem cell derived PD model, we measured ATP levels in drug treated (probucol, SPQ and HA-1 and L-Dopa) cells and compared with neurodegenerated (ND) cells.\n(§5) Neurodegenerated cells were incubated with probucol (20 μM), SPQ (10 μM), HA-1 (10 μM) and L-Dopa (50 μM) for 24 hours (p<0.05; *p<0.05, **p<0.001, ***p<0.0001, ns=non-significant, n=3)."}, "[15]": {"tested_on": "Neurodegenerated cells (Parkinson's disease model)", "assay": "Immunocytochemical localization of PD specific and neuronal markers", "type": "cell-based, human", "conditions": "fluorescence micrographs", "experimental": "as §3\nFor further confirmation and protein localization of neuronal, dopaminergic and PD specific neurodegenerative markers, we performed immunolocalization for synapsin I, Nurr1, TH and α-synuclein respectively.\nFluorescence micrographs of synapsin 1 positive neuronal cells were obtained and the effects of probucol, SPQ and HA-1 on neurodegeneration model with L-Dopa as positive control were compared.\nFluorescence micrographs of Nurr1 positive dopaminergic neuronal cells were obtained and the effects of probucol, SPQ and HA-1 on neurodegeneration model with L-Dopa as positive control were compared.\nFluorescence micrographs of TH positive dopaminergic neuronal cells were obtained and the effects of probucol, SPQ and HA-1 on neurodegeneration model with L-Dopa as positive control were compared.\nFluorescence micrographs of α-synuclein immunolocalization were obtained and the effects of probucol, SPQ and HA-1 on neurodegeneration model with L-Dopa as positive control were compared."}, "[16]": {"tested_on": "Neurodegenerated cells (perinatal tissue derived human stem cell model for Parkinson's disease)", "assay": "Mitochondrial membrane potential by TMRE assay, Parkinson's disease model", "type": "cell-based", "conditions": "PD model; probucol 20 μM, SPQ 10 μM, HA-1 10 μM, L-Dopa 50 μM, 24 hours", "experimental": "as §3\nDysfunctional mitochondria and alterations in the mitochondrial membrane potential promote neurodegeneration seen in Parkinson's disease. For assessing the changes in mitochondrial membrane potential, we used TMRE (tetramethylrhodamine ethyl ester) to quantify the changes in live cells by fluorimetry.\nas §5"}}}
{"smiles": "CC(=O)O[C@@H]1CC[C@@]2(C)C(C1)C[C@@H](OC(C)=O)[C@H]1[C@@H]3CC[C@H]([C@H](C)CCC(=O)Oc4c(C(C)(C)C)cc(SC(C)(C)Sc5cc(C(C)(C)C)c(O)c(C(C)(C)C)c5)cc4C(C)(C)C)[C@@]3(C)CC[C@@H]12", "note": "(stereo in doubt) [HA-2, 2,6-di-tert-butyl-4-((2-((3,5-di-tert-butyl-4-hydroxyphenyl)thio)propan-2-yl)thio)phenyl (4R)-4-[(3R,5R,7R,8R,9S,10S,13R,14S,17R)-3,7-diacetoxy-10,13-dimethyl-2,3,4,5,6,7,8,9,11,12,14,15,16,17-tetradecahydro-1H-cyclopenta[a]phenanthren-17-yl]pentanoate]", "values": [{"measurement": "cell morphology", "setting": "OC-1 cells [1]", "result": "optimal morphology"}, {"measurement": "protection against programmed cell death (caspase-3 activation) / viable cell population", "setting": "Caspase 3/9 protein", "result": "least amount of cell death"}, {"measurement": "oxygen consumption rate (OCR)", "setting": "OC-1 cells [2]; OC-1 cells after 24 hours exposure to cisplatin (20, 30 and 40 μM)", "result": "most potent in reversing the cisplatin-induced cytotoxicity"}, {"measurement": "oxygen consumption rate (OCR)", "setting": "OC-1 cells [2]; OC-1 cells after 48 hours exposure to cisplatin (20, 30 and 40 μM)", "result": "significantly reverse the cytotoxic effects of cisplatin"}]}
{"smiles": "CCN(C)C(=O)Oc1cccc([C@H](C)N(C)C)c1", "note": "[rivastigmine]", "values": [{"measurement": "accumulation of BACE1 protein (immunolocalization)", "setting": "[3]", "result": "least expression"}, {"measurement": "LDH activity / LDH release", "setting": "[4]", "result": "decreased significantly LDH activity"}, {"measurement": "intracellular reactive oxidative stress (ROS)", "setting": "[5]", "result": "reduction of ROS and NO levels"}, {"measurement": "nitric oxide level", "setting": "[6]", "result": "reduction of ROS and NO levels"}, {"measurement": "mitochondrial membrane potential (TMRE)", "setting": "[7]", "result": "maintain the mitochondrial membrane potential"}, {"measurement": "glutathione (GSH) activity", "setting": "[8]", "result": "increase in the anti-oxidant GSH activity"}, {"measurement": "BACE1 gene expression (qRT-PCR)", "setting": "[9]", "result": "decrease the level of beta secretase 1 (BACE1)"}, {"measurement": "ChAT gene expression (qRT-PCR)", "setting": "[9]", "result": "increase the level of choline acetyltransferase (ChAT)"}]}
{"smiles": "N[C@@H](Cc1ccc(O)c(O)c1)C(=O)O", "note": "[L-Dopa, Levodopa]", "values": [{"measurement": "glutathione (GSH) activity", "setting": "[10]", "result": "increase in the GSH activity"}, {"measurement": "intracellular reactive oxidative stress (ROS)", "setting": "[11]", "result": "reduction of ROS and NO levels"}, {"measurement": "nitric oxide level", "setting": "[12]", "result": "reduction of ROS and NO levels"}, {"measurement": "TH gene expression (qRT-PCR)", "setting": "[13]", "result": "clearly upregulated"}, {"measurement": "ATP level", "setting": "[14]", "result": "Enhanced increase in ATP levels"}, {"measurement": "accumulation of α-synuclein (immunolocalization)", "setting": "[15]", "result": "least expression"}, {"measurement": "mitochondrial membrane potential (TMRE)", "setting": "[16]", "result": "maintain the mitochondrial membrane potential"}]}
